One assay addresses GCN2 (Homo sapiens, UniProt Q9P2K8). Briefly: GCN2 enzyme assay (TR-FRET Lanthascreen, GFP-eIF2alpha substrate). Format: biochemical. The source says:
GCN2: Assay Principle & Conditions
This assay can quantificate the activity of the serin kinase GCN2 (general control non-derepressible-2).
This kinase is involved in the stress metabolism of cells. It is activated upon starvation (amino acid depletion). Its natural substrate is eIF2a (eukaryotic initiation factor 2 alpha subunit), a translation factor, which gets activated (phosphorylated) by GCN2 in case of an amino acid bottleneck in the cells. This in turn leads to a halt of the protein synthesis. Inhibition of GCN2 results in stopping this mechanism: The cell can not stop protein production upon “starvation” stress.
The assay is run in two steps: the enzymatic reaction and the detection step. In the first step GCN2 is incubated with 10 μM ATP and 80 nM of the GFP-labelled substrate eIF2alpha at room temperature.
The enzymatic reaction is stopped by addition of EDTA. The amount of phosphorylated eIF2alpha is determined by TR-FRET (Lanthascreen): A complex is formed consisting of antibody and GFP labelled phospho-eIF2a, which allows a FRET upon exitation at 340 nm.
Final Concentrations in the Enzymatic Reaction • Hepes, pH 7.0 50 mM • MgCl2 10 mM • MnCl2 5 mM • BSA 0.1% • DMSO 1% • ATP 10 uM • DTT 2 mM • GFP-eIF2a 80 nM (substrate) • GCN2 30 nM (enzyme)
(TR-FRET usually uses a lanthanide donor and a delayed reading to cut background.)

The target of a further assay is T1, SYK (Homo sapiens, UniProt P43405).
T1 construct: purchased BPS Bioscience, CA, USA
As to the kind of experiment: SYK enzyme assay (Flash plate assay / Caliper mobility shift assay). Format: biochemical. The protocol: The kinase assay is performed either as 384-well Flashplate assay (for e.g. Topcount measurement) or as 384-well Image-Flashplate assay (for LEADseeker measurement).
2.5 nM SYK, 400 nM Biotin-Aha-Aha-[…]
and 10 μM ATP (spiked with 0.3 μCi 33P-ATP/well) are incubated in a total volume of 50 μl (60 mM Hepes, 10 mM MgCl2, 1.2 mM Dithiothreitol, 0.02% Brij35, 0.1% BSA, pH 7.5) with or without test compound for 1 hours at 30° C. The reaction is stopped with 25 μl 200 mM EDTA. After 30 Min at 30° C. the liquid is removed and each well washed thrice with 100 μl 0.9% sodium chloride solution. Non-specific reaction is determined in presence of 0.1 μM Staurosporine. Radioactivity is measured with Topcount (when using Flashplates) or with LEADseeker (when using Image-Flashplates) respectively. Results (e.g. IC50-values) are calculated with program tools provided by the IT-department (e.g. Symyx Assay Explorer, Genedata Screener).
Enzymatic Assays Using the Caliper LifeSciences Technology
The assays described here are performed on the Caliper Life Sciences LC3000 system This technology provides data on enzyme activity via measurement of the relative amounts of phosphorylated or unphosphorylated fluorescently labelled substrate peptide at the end of an enzymatic reaction.
These different states of peptide are resolved by applying a potential difference across the sample. The presence of the charged phosphate group on the product (as opposed to the substrate) causes a different peptide mobility between the two peptides. This is visualized by excitation of the fluorescent label on the substrate and product peptides and represented as peaks within the analysis software.
In order to measure inhibitor activity of kinase inhibitors on this technology, a TTP Mosquito liquid handling instrument is used to place 0.25 ul of the appropriate concentration of inhibitor in 100% DMSO (for a dose response curve calculation) into each well of a 384-well plate. To this reaction components are added to a final volume of 25 ul. The table below indicates the sequences and concentrations for the assays described in this report. Standard components are 1 mM DTT (Sigma, D0632), 1 mM MgCl2 (Sigma, M1028), 100 mM HEPES pH 7.5 (Calbiochem, 391338), 0.015% Brij-35 (Sigma, B4184).
The reaction is incubated for 90 min at 25 C, and then stopped by the addition of 70 ul of Stop buffer (100 mM HEPES pH 7.5, 0.015% Brij-35, 10 mM EDTA (Sigma, E7889)).
The plate is read on a Caliper LC 3000 in an Off-Chip mobility shift assay format, on a 12-sipper chip. Unphosphorylated substrate and phosphorylated product peptide resolve as separate peaks allowing direct measurement of percentage of conversion of substrate to product. The percent conversion can be plotted against concentration of inhibitor to produce a sigmoidal dose response curve, from which an IC50 can be calculated using GeneData Condoseo or a similar product.

Setting [1] is: 100% corresponds to zero effect, −50% corresponds to IC50.

Chain of GCN2 (Q9P2K8 whole entry): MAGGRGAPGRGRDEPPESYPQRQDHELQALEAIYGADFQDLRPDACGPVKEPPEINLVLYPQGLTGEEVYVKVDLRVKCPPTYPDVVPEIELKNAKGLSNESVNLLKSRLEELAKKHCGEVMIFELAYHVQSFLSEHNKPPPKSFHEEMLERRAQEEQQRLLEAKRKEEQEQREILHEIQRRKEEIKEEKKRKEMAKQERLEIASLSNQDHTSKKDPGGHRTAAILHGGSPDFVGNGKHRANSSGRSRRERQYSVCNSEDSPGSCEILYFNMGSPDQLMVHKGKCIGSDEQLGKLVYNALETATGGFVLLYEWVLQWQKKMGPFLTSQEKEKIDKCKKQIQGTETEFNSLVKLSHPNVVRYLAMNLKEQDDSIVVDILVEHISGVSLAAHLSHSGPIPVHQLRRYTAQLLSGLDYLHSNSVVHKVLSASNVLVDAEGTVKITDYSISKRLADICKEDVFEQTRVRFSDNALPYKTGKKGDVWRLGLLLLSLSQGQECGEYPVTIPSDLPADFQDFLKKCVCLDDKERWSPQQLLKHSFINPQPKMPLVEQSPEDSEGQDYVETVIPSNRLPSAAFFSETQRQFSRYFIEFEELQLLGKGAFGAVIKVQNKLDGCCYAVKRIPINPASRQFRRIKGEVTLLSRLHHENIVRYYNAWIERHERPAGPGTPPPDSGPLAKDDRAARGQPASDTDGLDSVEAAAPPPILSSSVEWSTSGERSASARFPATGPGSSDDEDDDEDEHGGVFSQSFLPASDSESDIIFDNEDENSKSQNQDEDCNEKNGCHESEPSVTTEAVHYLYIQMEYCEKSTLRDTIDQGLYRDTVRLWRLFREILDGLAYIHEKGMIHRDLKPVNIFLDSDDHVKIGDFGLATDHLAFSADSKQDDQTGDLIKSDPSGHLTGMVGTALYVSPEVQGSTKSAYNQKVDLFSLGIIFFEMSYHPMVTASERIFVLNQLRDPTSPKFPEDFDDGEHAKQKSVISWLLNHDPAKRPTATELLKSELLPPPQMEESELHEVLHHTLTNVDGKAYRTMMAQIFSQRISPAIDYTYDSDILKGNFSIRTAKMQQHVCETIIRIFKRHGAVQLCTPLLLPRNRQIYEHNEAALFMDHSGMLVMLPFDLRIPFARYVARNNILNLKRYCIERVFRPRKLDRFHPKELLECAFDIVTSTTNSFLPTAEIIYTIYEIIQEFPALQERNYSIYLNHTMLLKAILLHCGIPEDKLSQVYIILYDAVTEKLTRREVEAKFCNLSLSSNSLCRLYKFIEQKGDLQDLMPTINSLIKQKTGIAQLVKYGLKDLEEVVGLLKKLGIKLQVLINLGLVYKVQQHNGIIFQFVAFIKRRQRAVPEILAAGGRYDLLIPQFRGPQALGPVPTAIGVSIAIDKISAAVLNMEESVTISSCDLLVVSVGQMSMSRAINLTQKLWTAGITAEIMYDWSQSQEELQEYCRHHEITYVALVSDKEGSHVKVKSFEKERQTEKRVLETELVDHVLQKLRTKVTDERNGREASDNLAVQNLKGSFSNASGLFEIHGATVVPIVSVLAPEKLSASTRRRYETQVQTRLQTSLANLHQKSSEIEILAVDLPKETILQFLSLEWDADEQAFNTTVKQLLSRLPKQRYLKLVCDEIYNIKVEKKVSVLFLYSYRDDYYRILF

The IC50 is the midpoint of a concentration-inhibition curve. With `COc1cc(Nc2nc3cncc(-c4cnn(CCN5CCOCC5)c4)n3n2)ccc1N1CCN(C)CC1` [Compound A75, [3-methoxy-4-(4-methyl-piperazin-1-yl)-phenyl]-{5-[1-(2-morpholin-4-yl-ethyl)-1H-pyrazol-4-yl]-[1,2,4]triazolo[1,5-a]pyrazin-2-yl}-amine], the IC50 on GCN2 is < 1000 nM. At SYK (setting [1]), the “SYK (enzyme assay) % at 3 μM” value is −21@3%.
Consider `Cc1cc(Nc2nc3cncc(-c4cnn(C)c4)n3n2)ccc1NC(=O)C1CCOCC1` [Compound A83, tetrahydro-pyran-4-carboxylic acid {2-methyl-4-[5-(1-methyl-1H-pyrazol-4-yl)-[1,2,4]triazolo[1,5-a]pyrazin-2-ylamino]-phenyl}-amide], for which the IC50 was < 1000 nM at GCN2 and 5000 to 10000 nM at SYK.
In the case of `CC(=O)Nc1ccc(Nc2nc3cncc(-c4cnn(C)c4)n3n2)cc1C` [Compound A81, N-{2-methyl-4-[5-(1-methyl-1H-pyrazol-4-yl)-[1,2,4]triazolo[1,5-a]pyrazin-2-ylamino]-phenyl}-acetamide], the results for the IC50 against GCN2 and at SYK were < 1000 nM and 1000 to 5000 nM, respectively.
Take `Cn1cc(-c2cncc3nc(Nc4ccc(N5CCOCC5)cc4)nn23)cn1` [Compound A35, [5-(1-methyl-1H-pyrazol-4-yl)-[1,2,4]triazolo[1,5-a]pyrazin-2-yl]-(4-morpholin-4-yl-phenyl)-amine]: the IC50 against GCN2 and at SYK was < 1000 nM each time.
Regarding `CN1C(=O)Cc2cc(Nc3nc4cncc(-c5cnn(CCN6CCOCC6)c5)n4n3)ccc21` [Compound A52, 1-methyl-5-{5-[1-(2-morpholin-4-yl-ethyl)-1H-pyrazol-4-yl]-[1,2,4]triazolo[1,5-a]pyrazin-2-ylamino}-1,3-dihydro-indol-2-one], the IC50 on GCN2 was in the range of 1000 to 5000 nM. The “SYK (enzyme assay) % at 3 μM” value at SYK (setting [1]) is reported as −32@3%.
Regarding `Cc1cc(Nc2nc3cncc(-c4cnn(C)c4)n3n2)ccc1C(=O)NCC1CC1` [Compound A69, N-cyclopropylmethyl-2-methyl-4-[5-(1-methyl-1H-pyrazol-4-yl)-[1,2,4]triazolo[1,5-a]pyrazin-2-ylamino]-benzamide], the IC50 at GCN2 was < 1000 nM; on SYK, 1000 to 5000 nM.
`COc1cccc(Nc2nc3cncc(-c4cnn(C)c4)n3n2)c1` [Compound A30]: the IC50 against GCN2 was < 1000 nM. Also, at SYK (setting [1]), the “SYK (enzyme assay) % at 3 μM” value was −33@3%.
On to `CN1CCN(c2ccc(Nc3nc4cncc(Nc5cnn(C)c5)n4n3)cc2)CC1` [Compound A53, N2-[4-(4-methyl-piperazin-1-yl)-phenyl]-N5-(1-methyl-1H-pyrazol-4-yl)-[1,2,4] triazolo[1,5-a]pyrazine-2,5-diamine], for which the IC50 at GCN2 was 1000 to 5000 nM. The “SYK (enzyme assay) % at 3 μM” value at SYK (setting [1]) was −23@3%.
`COc1cc(Nc2nc3cncc(-c4cnn(C)c4)n3n2)ccc1C(=O)NC1CC1` [Compound A72, N-cyclopropyl-2-methoxy-4-[5-(1-methyl-1H-pyrazol-4-yl)-[1,2,4]triazolo[1,5-a]pyrazin-2-ylamino]-benzamide]: the values for the IC50 against GCN2 and on SYK were < 1000 nM and 5000 to 10000 nM, respectively.
The like results for `Cn1cc(-c2cncc3nc(Nc4ccc(C5(C#N)CC5)cc4)nn23)cn1` [Compound A47, 1-{4-[5-(1-methyl-1H-pyrazol-4-yl)-[1,2,4]triazolo[1,5-a]pyrazin-2-ylamino]-phenyl}-cyclopropanecarbonitrile] were, in that order, < 1000 nM and < 1000 nM.
With `Cc1cc(Nc2nc3cncc(-c4cnn(C)c4)n3n2)ccc1NC(=O)C1CCC1` [Compound A65, cyclobutanecarboxylic acid {2-methyl-4-[5-(1-methyl-1H-pyrazol-4-yl)-[1,2,4]triazolo[1,5-a]pyrazin-2-ylamino]-phenyl}-amide], the IC50 at GCN2 was < 1000 nM; on SYK, 5000 to 10000 nM.
In the case of `COc1cc(Nc2nc3cncc(-c4cnn(C)c4)n3n2)ccc1C(=O)NCC1CC1` [Compound A70, N-cyclopropylmethyl-2-methoxy-4-[5-(1-methyl-1H-pyrazol-4-yl)-[1,2,4]triazolo[1,5-a]pyrazin-2-ylamino]-benzamide], the IC50 at GCN2 was < 1000 nM. Further, the “SYK (enzyme assay) % at 0.3 μM” value on SYK (at 0.3 μM, 100% corresponds to zero effect, −50% corresponds to IC50) is −12@0.3%.
On to `Cc1cc(Nc2nc3cncc(-c4cnn(C)c4)n3n2)ccc1OC(F)(F)F` [Compound A64, [5-(1-methyl-1H-pyrazol-4-yl)-[1,2,4]triazolo[1,5-a]pyrazin-2-yl]-(3-methyl-4-trifluoromethoxy-phenyl)-amine], for which the figures for the IC50 on GCN2 and at SYK were < 1000 nM and 1000 to 5000 nM, respectively.
In the same order, the values of `CN(C)Cc1nc2cc(Nc3nc4cncc(-c5cnn(C)c5)n4n3)ccc2[nH]1` [Compound A14] are < 1000 nM and 1000 to 5000 nM.
Compound `Clc1cn2nc(Nc3cccnc3)nc2cn1` [Compound A20] displayed an IC50 on GCN2 of 1000 to 5000 nM. In addition, the “SYK (enzyme assay) % at 3 μM” value on SYK (setting [1]) was 1@3%.
Regarding `CNS(=O)(=O)c1ccc(-c2cncc3nc(Nc4ccc(N5CCN(C)CC5)c(OC)c4)nn23)cc1` [Compound A94, 4-{2-[3-methoxy-4-(4-methyl-piperazin-1-yl)-phenylamino]-[1,2,4]triazolo[1,5-a]pyrazin-5-yl}-N-methyl-benzenesulfonamide], the IC50 against GCN2 is < 1000 nM; at SYK, 1000 to 5000 nM.
With `O=C1Cc2cc(Nc3nc4cncc(-c5cnn(CCN6CCOCC6)c5)n4n3)ccc2N1` [Compound A49, 5-{5-[1-(2-morpholin-4-yl-ethyl)-1H-pyrazol-4-yl]-[1,2,4]triazolo[1,5-a]pyrazin-2-ylamino}-1,3-dihydro-indol-2-one], the IC50 against GCN2 was 1000 to 5000 nM. At SYK (setting [1]), the “SYK (enzyme assay) % at 3 μM” value is −19@3%.
In the same order, the values of `COc1cccc(Nc2nc3cncc(-c4ccccc4)n3n2)c1` [Compound A28] are < 1000 nM and −2@3%.
Take `Cc1cc(Nc2nc3cncc(-c4ccc(N5CCOCC5)cc4)n3n2)ccc1N1CCN(C)CC1` [Compound A17, [3-methyl-4-(4-methyl-piperazin-1-yl)-phenyl]-[5-(4-morpholin-4-yl-phenyl)-[1,2,4]triazolo[1,5-a]pyrazin-2-yl]-amine]: the IC50 was < 1000 nM against GCN2 and 1000 to 5000 nM on SYK.
Consider `CC(C)(C#N)c1ccc(-c2cncc3nc(Nc4ccc(N5CCOCC5)cc4)nn23)cc1` [Compound A34, 2-Methyl-2-{4-[2-(4-morpholin-4-yl-phenylamino)-[1,2,4]triazolo[1,5-a]pyrazin-5-yl]-phenyl}-propionitrile], for which the IC50 on GCN2 and at SYK was 1000 to 5000 nM each time.
Consider `Cn1cc(-c2cncc3nc(Nc4ccc(S(C)(=O)=O)cc4)nn23)cn1` [Compound A11, (4-methanesulfonyl-phenyl)-[5-(1-methyl-1H-pyrazol-4-yl)-[1,2,4]triazolo[1,5-a]pyrazin-2-yl]-amine], for which the concentration for half-maximal inhibition (IC50) against GCN2 and at SYK was 1000 to 5000 nM throughout.
In the case of `O=C1Cc2cc(Nc3nc4cncc(-c5ccc(CN6CCOCC6)s5)n4n3)ccc2N1` [Compound A58, 5-[5-(5-morpholin-4-ylmethyl-thiophen-2-yl)-[1,2,4]triazolo[1,5-a]pyrazin-2-ylamino]-1,3-dihydro-indol-2-one], at GCN2, the IC50 was < 1000 nM. Moreover, the “SYK (enzyme assay) % at 3 μM” value on SYK (setting [1]) was −34@3%.

(Values after patent US20150051202A1, “TRIAZOLOPYRAZINE DERIVATIVES” (Merck Patent GmbH, priority 2012, published 2015).)
